For the assay, the target named is T1, GABAB receptor (Homo sapiens, UniProt O75899+Q9UBS5).
T1 construct: expressed in transfected cells; host or cells: CHO-K1 (membranes)
Nature of the assay: [35S]-GTPγS binding assay with GABA in the presence or absence of PAM. The assay is classed as biochemical. As to conditions: log EC50 for GABA plotted against log concentration of the positive allosteric modulator; read-out: EC50 (potency of the positive allosteric modulator). The method, then:
[^35S]-GTPγS binding assays were performed at 30° C. for 45 min in membrane buffer (100 mM NaCl, 5 mM MgCl2, 1 mM EDTA, 50 mM HEPES, pH 7.4) containing 0.025 μg/μl of membrane protein (prepared from the cell lines described above) with 0.01% bovine serum albumin (fatty acid free), 10 μM GDP, 100 μM DTT and 0.53 nM [^35S]-GTPγS (Amersham-Pharmacia Biotech) in a final volume of 200 μl. Non-specific binding was determined in the presence of 20 μM GTPγS. The reaction was started by the addition of GABA at concentration between 1 mM and 0.1 mM in the presence or absence of the required concentration of PAM. The reaction was terminated by addition of ice-cold wash buffer (50 mM Tris-HCl, 5 mM MgCl2, 50 mM NaCl, pH 7.4) followed by rapid filtration under vacuum through Printed Filtermat A glass fiber filters (Wallac) (0.05% PEI treated) using a Micro 96 Harvester (Skatron Instruments). The filters were dried for 30 min at 50° C., then a paraffin scintillant pad was melted onto the filters and the bound radioactivity was determined using a 1450 Microbeta Trilux (Wallac) scintillation counter.
GABA dose-response curves in the presence and absence of test compounds were constructed using the 4-parameter logistic equation, y=ymax+((ymin−ymax)/1+(x/C)^D) where C=EC50 and D=slope factor.
The potency of PAM in GTPγS assays was determined by plotting the log EC50 for GABA against the log concentration of the positive allosteric modulator in the presence of which the measurement was performed.
A general note: GTPγS resists hydrolysis and so accumulates on activated G proteins.

T1 sequence (Q9UBS5 15-961 limits assumed): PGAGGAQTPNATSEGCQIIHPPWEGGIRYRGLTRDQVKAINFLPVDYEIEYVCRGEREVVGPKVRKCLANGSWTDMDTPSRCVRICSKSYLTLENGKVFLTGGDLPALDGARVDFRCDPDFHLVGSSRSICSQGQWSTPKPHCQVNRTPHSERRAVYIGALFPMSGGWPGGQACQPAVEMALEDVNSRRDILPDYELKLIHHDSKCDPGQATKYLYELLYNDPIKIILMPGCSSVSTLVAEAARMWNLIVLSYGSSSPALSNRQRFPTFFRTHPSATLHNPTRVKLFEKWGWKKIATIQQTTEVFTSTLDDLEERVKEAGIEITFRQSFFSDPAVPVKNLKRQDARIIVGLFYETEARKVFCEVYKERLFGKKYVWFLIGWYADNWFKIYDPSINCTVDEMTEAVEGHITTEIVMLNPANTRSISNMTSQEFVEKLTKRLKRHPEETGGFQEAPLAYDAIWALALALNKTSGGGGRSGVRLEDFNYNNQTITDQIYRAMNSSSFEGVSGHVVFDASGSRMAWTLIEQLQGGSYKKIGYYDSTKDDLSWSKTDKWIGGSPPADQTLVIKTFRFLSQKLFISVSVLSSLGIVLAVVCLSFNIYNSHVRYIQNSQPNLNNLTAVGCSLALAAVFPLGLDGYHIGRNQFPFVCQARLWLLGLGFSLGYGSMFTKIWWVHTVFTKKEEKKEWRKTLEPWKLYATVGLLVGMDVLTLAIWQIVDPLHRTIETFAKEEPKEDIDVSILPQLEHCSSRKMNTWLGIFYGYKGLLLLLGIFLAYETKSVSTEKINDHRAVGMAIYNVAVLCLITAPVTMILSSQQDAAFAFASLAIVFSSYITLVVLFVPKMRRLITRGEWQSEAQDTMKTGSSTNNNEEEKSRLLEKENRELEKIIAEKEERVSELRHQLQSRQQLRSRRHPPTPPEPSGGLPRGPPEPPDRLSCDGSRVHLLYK
T1 sequence (O75899 42-941): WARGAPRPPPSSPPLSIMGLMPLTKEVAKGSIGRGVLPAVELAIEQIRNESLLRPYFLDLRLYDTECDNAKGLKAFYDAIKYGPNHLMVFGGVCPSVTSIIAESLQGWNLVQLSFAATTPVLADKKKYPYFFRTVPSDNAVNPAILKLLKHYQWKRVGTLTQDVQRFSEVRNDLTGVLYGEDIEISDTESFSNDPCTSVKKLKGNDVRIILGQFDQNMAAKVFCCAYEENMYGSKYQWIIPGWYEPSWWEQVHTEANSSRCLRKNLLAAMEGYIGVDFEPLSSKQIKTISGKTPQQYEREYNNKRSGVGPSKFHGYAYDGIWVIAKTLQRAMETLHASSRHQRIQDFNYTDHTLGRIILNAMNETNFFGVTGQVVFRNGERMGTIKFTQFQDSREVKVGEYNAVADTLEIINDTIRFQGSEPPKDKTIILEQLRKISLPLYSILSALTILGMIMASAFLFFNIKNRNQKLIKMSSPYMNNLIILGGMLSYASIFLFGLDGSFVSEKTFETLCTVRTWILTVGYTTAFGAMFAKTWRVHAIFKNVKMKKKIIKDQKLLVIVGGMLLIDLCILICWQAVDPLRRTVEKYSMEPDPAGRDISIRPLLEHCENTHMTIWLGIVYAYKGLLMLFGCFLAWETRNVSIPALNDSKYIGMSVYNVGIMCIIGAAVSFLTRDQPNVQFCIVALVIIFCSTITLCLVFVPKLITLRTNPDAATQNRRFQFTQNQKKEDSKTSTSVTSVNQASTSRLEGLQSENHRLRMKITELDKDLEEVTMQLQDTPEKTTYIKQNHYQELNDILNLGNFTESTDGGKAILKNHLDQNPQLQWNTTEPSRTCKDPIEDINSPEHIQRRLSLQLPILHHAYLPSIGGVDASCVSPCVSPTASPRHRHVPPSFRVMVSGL

The term EC50 denotes the concentration at which the effect is half-maximal. As to `COCC(C)(C)OC(=O)c1c(NC(=O)C2COc3ccccc3O2)nc(OC)n1-c1ccccc1` (stereo not shown) [2-methoxy-1,1-dimethylethyl 4-[(2,3-dihydro-1,4-benzodioxin-2-ylcarbonyl)amino]-2-methoxy-1-phenyl-1H-imidazole-5-carboxylate], the EC50 was found to be 300 nM.
With `CCCCC(C)(C)OC(=O)c1c(NC(=O)c2ccc(Cl)cc2)nc(SC)n1-c1ccccc1` [1,1-dimethylpentyl 4-[(4-chlorobenzoyl)amino]-2-(methylthio)-1-phenyl-1H-imidazole-5-carboxylate] the figure was 300 nM; with `CCOC(=O)c1c(NC(=O)c2ccc(Cl)c(Cl)c2)nc(SC)n1Cc1ccccc1` [1H-imidazole-5-carboxylic acid, 4-[(3,4-dichlorobenzoyl)amino]-2-(methylthio)-1-(phenylmethyl)-, ethyl ester], 2300 nM; with `CCOC(=O)c1c(NC(=O)C(CC)c2ccccc2)nc(SC)n1-c1ccccc1` (stereo not shown) [1H-imidazole-5-carboxylic acid, 2-(methylthio)-4-[(1-oxo-2-phenylbutyl)amino]-1-phenyl-, ethyl ester], 600 nM.

These data come from patent publication US7718686B2, “Imidazole variants as modulators of GABA receptor for the treatment of GI disorders” (AstraZeneca AB, priority 2004, dated 2010).
